# Reference: US12600732B2, “Bifunctional compounds for degrading BTK via ubiquitin proteosome pathway” (NURIX THERAPEUTICS, INC., priority 2019, dated 2026)
# Molecular target: T1, BTK (Mus musculus, UniProt P35991)
# T1 construct: from tissue; host or cells: mouse blood B cells / splenocytes (CD-1 or BALB/c)
# Assay: In vivo degradation of BTK in mouse PD experiments with oral dosing
# Conditions: oral dose 1 mg/kg, 6 h, splenocytes, HTRF
# Method: A method of determining the pharmacodynamic profile of BTK degraders was performed by dosing either CD-1 or BALB/c mice with CTM. The CTM was prepared in a suitable formulation and was administered via oral gavage (PO) at a suitable dose level and frequency as informed by prior pharmacokinetic and tolerability studies. Following administration of CTM, BTK levels in blood or splenocytes are measured using flow cytometry or HTRF. For assessment of BTK levels via flow cytometry, either whole blood or splenocytes were first treated with ACK RBC lysis buffer to facilitate lysing of red blood cells. Remaining cells were then stained with fluorophore-conjugated antibodies against CD45, TCR beta and CD45R (B220). Cell pellets were washed with 1×PBS, fixed, and permeabilized for twenty-four hours with Foxp3/Transcription Factor Fixation/Permeabilization Kit. Cells were then stained intracellularly with unconjugated BTK antibody and detected with a fluorophore-conjugated secondary antibody. Stained cells were run on an Attune N×T Acoustic Focusing Flow Cytometer (Thermo-Fisher A29004), and data was analyzed using FlowJo (v10.5.3) and GraphPad Prism (v7.00) software. Lymphocytes were gated for B cells defined as CD45+ TCR beta−B220+ and T cells as CD45+ TCR beta+B220−. The BTK geometric mean fluorescence intensity (MFI) was calculated for B and T cells. Percent BTK degradation for each compound-treated sample was calculated using the equation described below: % Degradation=100*(Treated sample B cell BTK MFI-treated sample T cell BTK MFI)/Vehicle B cell BTK MFI-Vehicle T cell BTK MFI)
# This example evaluates in vivo activity of BTK CTMs via a direct mouse PD measurement following oral dosing
# Screens were completed at 90 mg/kg for six hours, and then changed to lower doses/longer time points after seeing strong BTK degradation activity with an initial set of compounds. This assay was useful in selecting compounds for in vivo efficacy experiments.
# T1 sequence (P35991 whole entry): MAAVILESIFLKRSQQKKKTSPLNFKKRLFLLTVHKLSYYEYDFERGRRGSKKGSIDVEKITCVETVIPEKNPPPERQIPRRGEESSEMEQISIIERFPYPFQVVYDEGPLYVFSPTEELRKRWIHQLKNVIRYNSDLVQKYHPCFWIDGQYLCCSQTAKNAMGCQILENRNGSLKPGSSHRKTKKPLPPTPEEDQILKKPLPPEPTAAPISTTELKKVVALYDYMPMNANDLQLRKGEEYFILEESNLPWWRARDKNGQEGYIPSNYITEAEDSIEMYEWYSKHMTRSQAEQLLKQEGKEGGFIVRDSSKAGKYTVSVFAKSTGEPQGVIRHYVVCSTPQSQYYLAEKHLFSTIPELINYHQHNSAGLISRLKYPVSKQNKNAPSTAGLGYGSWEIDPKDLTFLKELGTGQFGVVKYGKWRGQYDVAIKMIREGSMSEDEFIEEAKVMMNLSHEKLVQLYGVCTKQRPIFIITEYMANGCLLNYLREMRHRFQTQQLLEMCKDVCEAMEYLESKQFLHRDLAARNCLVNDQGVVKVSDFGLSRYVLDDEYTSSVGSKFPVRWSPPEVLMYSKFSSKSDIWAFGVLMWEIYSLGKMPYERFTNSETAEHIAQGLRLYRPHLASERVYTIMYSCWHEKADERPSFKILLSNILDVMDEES
row,Structure (SMILES),% BTK Remaining [%]
1,CN1CCN([C@@H]2CCCN(c3cnc(C(N)=O)c(Nc4ccc(C5CN(C[C@H]6CCN(c7ccc8c(c7)C(=O)N(C7CCC(=O)NC7=O)C8=O)C6)C5)cc4)n3)C2)C1=O (stereo partly shown) [Compound 35],74
2,CN1CCN([C@H]2CCCN(c3cnc(C(N)=O)c(Nc4ccc(N5CC6CN(c7ccc8c(c7)C(=O)N(C7CCC(=O)NC7=O)C8=O)CC6C5)cc4)n3)C2)C1=O (stereo partly shown) [Compound 79],102
3,CN1CCN([C@@H]2CCCN(c3cnc(C(N)=O)c(Nc4ccc(N5CCC6CCN(c7cccc8c7C(=O)N(C7CCC(=O)NC7=O)C8=O)CC6C5)cc4)n3)C2)C1=O (stereo partly shown) [Compound 105],85
4,CN1CCN([C@@H]2CCCN(c3cnc(C(N)=O)c(Nc4ccc(N5CCN(C[C@H]6CCN(c7ccc8c(c7)C(=O)N(C7CCC(=O)NC7=O)C8=O)C6)CC5)nc4)n3)C2)C1=O (stereo partly shown) [Compound 113],70
5,CN1CCN([C@@H]2CCCN(c3cnc(C(N)=O)c(Nc4ccc(N5CC6CN(Cc7ccc8c(c7)C(=O)N(C7CCC(=O)NC7=O)C8=O)CC6C5)cc4)n3)C2)C1=O (stereo partly shown) [Compound 76],100
6,CN1CCN([C@H]2CCCN(c3cnc(C(N)=O)c(Nc4ccc(N5CCC6(CCCN(Cc7ccc8c(c7)C(=O)N(C7CCC(=O)NC7=O)C8=O)C6)CC5)cc4)n3)C2)C1=O (stereo partly shown) [Compound 108],116
7,CN1CCN([C@@H]2CCCN(c3cnc(C(N)=O)c(Nc4ccc(C5CCN(C[C@@H]6[C@H]7CN(c8ccc9c(c8)C(=O)N(C8CCC(=O)NC8=O)C9=O)C[C@@H]67)CC5)cc4)n3)C2)C1=O (stereo partly shown) [Compound 39],79

# Same assay, conditions: oral dose 3 mg/kg, 6 h, blood, flow cytometry
row,Structure (SMILES),% BTK Remaining [%]
1,"Cn1cc(Nc2nc(N3CCC[C@@H](N4CC5(CN(CC6CN(c7ccc8c(c7)C(=O)N(C7CCC(=O)NC7=O)C8=O)C6)C5)OC4=O)C3)cnc2C(N)=O)cn1 (stereo partly drawn) [compound 213, 5-((3R)-3-(2-((1-(2-(2,6-dioxopiperidin-3-yl)-1,3-dioxoisoindolin-5-yl)azetidin-3-yl)methyl)-6-oxo-5-oxa-2,7-diazaspiro[3.4]octan-7-yl)piperidin-1-yl)-3-((1-methyl-1H-pyrazol-4-yl)amino)pyrazine-2-carboxamide]",97
2,CN1CCN([C@@H]2CCCN(c3cnc(C(N)=O)c(Nc4cc5n(n4)CCN(C[C@H]4CCN(c6ccc7c(c6)C(=O)N(C6CCC(=O)NC6=O)C7=O)C4)C5)c3)C2)C1=O (stereo partly shown) [Compound 214],100

# Same assay, conditions: oral dose 30 mg/kg, 24 h, blood, analysis method not given
row,Structure (SMILES),% BTK Remaining [%]
1,CN1CCN([C@@H]2CCCN(c3cnc(C(N)=O)c(Nc4ccc(N5CCN(C[C@H]6CCN(c7ccc8c(c7)C(=O)N(C7CCC(=O)NC7=O)C8=O)C6)CC5)nc4)n3)C2)C1=O (stereo partly shown) [Compound 113],59

# Same assay, conditions: oral dose 30 mg/kg, 24 h, blood, flow cytometry
row,Structure (SMILES),% BTK Remaining [%]
1,Cn1c(=O)n([C@@H]2CCC(=O)NC2=O)c2ccc(N3CC[C@@H](CN4CCC(c5ccc(Nc6nc(N7CCCCC7)cnc6C(N)=O)cc5)CC4)C3)cc21 [Compound 197],13
2,CN1CCN([C@@H]2CCCN(c3cnc(C(N)=O)c(Nc4ccc(C5CCN(C[C@H]6C[C@H](Nc7cccc8c7C(=O)N([C@@H]7CCC(=O)NC7=O)C8=O)C6)CC5)cc4)n3)C2)C1=O [Compound 202],79
3,CN1CCN([C@@H]2CCCN(c3cnc(C(N)=O)c(Nc4ccc(C5CCN(C[C@H]6CCN(c7ccc8c(c7)CN(C7CCC(=O)NC7=O)C8=O)C6)CC5)cc4)n3)C2)C1=O (stereo partly shown) [Compound 117],49
4,NC(=O)c1ncc(N2CCCC(N3CCCC3=O)C2)nc1Nc1ccc(C2CCN(C[C@@H]3CCN(c4ccc5c(c4)C(=O)N(C4CCC(=O)NC4=O)C5=O)C3)CC2)cc1 (stereo partly shown) [Compound 146],37
5,CN1CCN([C@@H]2CCCN(c3cnc(C(N)=O)c(Nc4ccc(C5CCN(CC6CN(c7ccc8c(=O)n(C9CCC(=O)NC9=O)ccc8c7)C6)CC5)cc4)n3)C2)C1=O (stereo partly shown) [Compound 116],39
6,CN1CCN([C@@H]2CCCN(c3cnc(C(N)=O)c(Nc4ccc(C5CCN(C[C@@H]6CCN(c7ccc8c(c7)n(C)c(=O)n8[C@@H]7CCC(=O)NC7=O)C6)CC5)cc4)n3)C2)C1=O [Compound 199],20
7,CN1CCN([C@H]2CCCN(c3cnc(C(N)=O)c(Nc4ccc(C5CCN(C[C@@H]6CCN(c7ccc(-c8nn(C9CCC(=O)NC9=O)c(=O)n8C)cc7)C6)CC5)cc4)n3)C2)C1=O (stereo partly shown) [Compound 142],43
8,Cn1cc(Nc2nc(N3CCC[C@@H](N4CCC5(CN(CC6CCN(c7ccc8c(=O)n(C9CCC(=O)NC9=O)ccc8c7)CC6)C5)C4=O)C3)cnc2C(N)=O)cn1 (stereo partly shown) [Compound 145],100
9,CN1CCN([C@@H]2CCCN(c3cnc(C(N)=O)c(Nc4ccc(C5CCN(C[C@H]6CCN(c7ccc8c(c7)n(C)c(=O)n8[C@@H]7CCC(=O)NC7=O)C6)CC5)cc4)n3)C2)C1=O [Compound 198],25
10,O=C1CC[C@H](N2C(=O)c3ccc(N4CC[C@H](CN5CCC(c6ccc(Nc7nc(-c8nccs8)cn8ccnc78)cc6)CC5)C4)cc3C2=O)C(=O)N1 [Compound 203],95
11,Cn1c(=O)n([C@@H]2CCC(=O)NC2=O)c2ccc(N3CC[C@H](CN4CCC(c5ccc(Nc6nc(N7CCCCC7)cnc6C(N)=O)cc5)CC4)C3)cc21 [Compound 196],33
12,Cn1c(-c2ccc(N3CCC(CN4CCC(c5ccc(Nc6nc(N7CCC[C@H](N8CCCC8=O)C7)cnc6C(N)=O)cc5)CC4)CC3)cc2)nn(C2CCC(=O)NC2=O)c1=O (stereo partly shown) [Compound 143],37
13,NC(=O)c1ncc(N2CCC[C@H](N3CCCC3=O)C2)nc1Nc1ccc(C2CCN(CC3CCN(c4ccc5c(=O)n(C6CCC(=O)NC6=O)ccc5c4)CC3)CC2)cc1 (stereo partly shown) [Compound 144],29

# Same assay, conditions: oral dose 30 mg/kg, 24 h, splenocytes, HTRF
row,Structure (SMILES),% BTK Remaining [%]
1,NC(=O)c1ncc(N2CCCCC2)nc1Nc1ccc(C2CCN(CC3CCN(c4ccc(OC5CCC(=O)NC5=O)cn4)CC3)CC2)cc1 (stereo not shown) [Compound 164],29
2,NC(=O)c1ncc(N2CCC3(COC3)C2)nc1Nc1ccc(C2CCN(C[C@H]3CCN(c4ccc5c(c4)C(=O)N(C4CCC(=O)NC4=O)C5=O)C3)CC2)cc1 (stereo partly shown) [Compound 176],48
3,CN1CCN([C@@H]2CCCN(c3cnc(C(N)=O)c(Nc4ccc(C5CCN(CC6CCN(c7cnn(C8CCC(=O)NC8=O)c(=O)c7)CC6)CC5)cc4)n3)C2)C1=O (stereo partly shown) [Compound 120],59
4,CN1CCN([C@@H]2CCCN(c3cnc(C(N)=O)c(Nc4cnc(N5CCN(C[C@H]6CCN(c7ccc8c(c7)C(=O)N([C@@H]7CCC(=O)NC7=O)C8=O)C6)CC5)nc4)n3)C2)C1=O [Compound 204],87
5,CN1CCN([C@@H]2CCCN(c3cnc(C(N)=O)c(Nc4ccc(C5CN(CC6CCN(c7ccc(-c8nn(C9CCC(=O)NC9=O)c(=O)n8C)cc7)CC6)C5)cc4)n3)C2)C1=O (stereo partly shown) [Compound 119],77
6,CN1CCN([C@@H]2CCCN(c3cnc(C(N)=O)c(Nc4ccc(N5CCN(C[C@H]6CCN(c7ccc8c(c7)C(=O)N(C7CCC(=O)NC7=O)C8=O)C6)CC5)nc4)n3)C2)C1=O (stereo partly shown) [Compound 113],52
7,NC(=O)c1ncc(N2CCC[C@@H](N3CCCC3=O)C2)nc1Nc1ccc(N2CC(C3CCN(c4ccc5c(c4)C(=O)N(C4CCC(=O)NC4=O)C5=O)CC3)C2)nc1 (stereo partly shown) [Compound 168],84
8,CN1CCN([C@@H]2CCCN(c3cnc(C(N)=O)c(Nc4ccc(C5CN(CC6CCN(c7cnn(C8CCC(=O)NC8=O)c(=O)c7)CC6)C5)cc4)n3)C2)C1=O (stereo partly shown) [Compound 118],85
9,"Cc1cc(Nc2nc(N3CCC[C@@H](N4CCC5(CCN(CC6CCN(c7ccc8c(c7)C(=O)N(C7CCC(=O)NC7=O)C8=O)CC6)CC5)C4=O)C3)cnc2C(N)=O)sn1 (stereo partly drawn) [compound 205, 5-[(3R)-3-[8-({1-[2-(2,6-dioxopiperidin-3-yl)-1,3-dioxoisoindol-5-yl]piperidin-4-yl}methyl)-1-oxo-2,8-diazaspiro[4.5]decan-2-yl]piperidin-1-yl]-3-[(3-methyl-1,2-thiazol-5-yl)amino]pyrazine-2-carboxamide]",66

# Same assay, conditions: oral dose 90 mg/kg, 6 h, splenocytes, HTRF
row,Structure (SMILES),% BTK Remaining [%]
1,CN1CCN([C@@H]2CCCN(c3cnc(C(N)=O)c(Nc4ccc(N5CCN(C[C@H]6CCCN(c7ccc8c(c7)C(=O)N(C7CCC(=O)NC7=O)C8=O)C6)CC5)cc4)n3)C2)C1=O (stereo partly shown) [Compound 48],7
2,CN1CCN([C@@H]2CCCN(c3cnc(C(N)=O)c(Nc4ccc(N5CCN(C[C@@H]6CCCN(c7ccc8c(c7)C(=O)N(C7CCC(=O)NC7=O)C8=O)C6)CC5)cc4)n3)C2)C1=O (stereo partly shown) [Compound 46],14
3,CN1CCN([C@@H]2CCCN(c3cnc(C(N)=O)c(Nc4ccc(C5CCN(C[C@H]6CCCN(c7ccc8c(c7)C(=O)N(C7CCC(=O)NC7=O)C8=O)C6)CC5)cc4)n3)C2)C1=O (stereo partly shown) [Compound 50],9
4,CN1CCN([C@@H]2CCCN(c3cnc(C(N)=O)c(Nc4ccc(C5CCN(C[C@@H]6CCN(c7ccc8c(c7)C(=O)N(C7CCC(=O)NC7=O)C8=O)C6)CC5)cc4)n3)C2)C1=O (stereo partly shown) [Compound 52],2
5,CN1CCN([C@@H]2CCCN(c3cnc(C(N)=O)c(Nc4ccc(C5CCN(CCC6CCN(c7ccc8c(c7)C(=O)N(C7CCC(=O)NC7=O)C8=O)CC6)CC5)cc4)n3)C2)C1=O (stereo partly shown) [Compound 41],15
